Results reported in US20210355106A1, “NEW AMINO-PYRIMIDONYL-PIPERIDINYL DERIVATIVES, A PROCESS FOR THEIR PREPARATION AND PHARMACEUTICAL COMPOSITIONS CONTAINING THEM” (LES LABORATOIRES SERVIER, priority 2018, published 2021).
Values joined by “and” are separate entries in the source; they are usually repeats but may differ in a detail not shown here. Equal entries are not always repeated.

Assays:
[1] = target: T1, USP7 (Homo sapiens, UniProt Q93009, C315A); test: Inhibition of USP7 by Fluorescence Intensity (FLINT) readings, Ubiquitin-Rhodamine-110 substrate; assay type: biochemical; conditions: 0.25 nM His-His-USP7 (aa208-560), 60 minutes at 30° C. preincubation; Ki determined from IC50 according to Cer et al.
T1 construct: 0.25 nM His-His-USP7 (aa208-560, |C315A|) was incubated with compound; His-His (N)
Outline: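 Kinetic rate of Rhodamine-110 release from ubiquitin substrate (50 nM or 4 μM), read every 3 min for 21 min, after 60 min, 30 °C preincubation of 0.25 nM USP7 catalytic domain C315A with compound. Bicine pH 8.0 buffer, 10% DMSO; 11-point IC50 vs DMSO and no-enzyme controls, converted to Ki.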

[2] = tested on: Z138 mantle cell lymphoma tumour cell lines; test: In vitro cytotoxicity, MTT assay; assay type: cell-based; conditions: Z138 cells, exposed to the test compounds for 96 hours
Outline: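 MTT viability read-out: after 96 hours of compound treatment, Z138 mantle cell lymphoma cells received MTT for 4 hours, and formazan production was quantified by absorbance at 540 nm.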

T1 sequence (Q93009 208-560 C315A): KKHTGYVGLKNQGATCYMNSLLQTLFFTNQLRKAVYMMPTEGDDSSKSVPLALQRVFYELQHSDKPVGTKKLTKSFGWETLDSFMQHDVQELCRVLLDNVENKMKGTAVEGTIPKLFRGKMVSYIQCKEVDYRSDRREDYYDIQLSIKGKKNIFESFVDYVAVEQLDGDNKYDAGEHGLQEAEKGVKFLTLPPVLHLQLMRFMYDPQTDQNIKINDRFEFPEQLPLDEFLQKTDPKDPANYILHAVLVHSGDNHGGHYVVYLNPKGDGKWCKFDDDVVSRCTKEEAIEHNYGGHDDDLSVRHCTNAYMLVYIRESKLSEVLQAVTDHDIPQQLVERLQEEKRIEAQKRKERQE

| Structure (SMILES) | Ki [1] | IC50 ([2]; Homo sapiens, Z-138) [nM] | IC50 [2] [nM] |
| --- | --- | --- | --- |
| Nc1c(Oc2ccc(F)cc2)ncn(CC2(O)CCN(C(=O)[C@@H]3CCN(C(=O)Nc4ccccc4)C[C@H]3c3ccccc3)CC2)c1=O [Example 76, (3R,4R).4-[4-[[5-amino-4-(4-fluorophenoxy)-6-oxo-pyrimidin-1-yl]methyl]-4-hydroxy-piperidine-1-carbonyl]-N,3-diphenyl-piperidine-1-carboxamide] | 17 nM | 22 | – |
| Nc1c(Oc2cccc(C(F)(F)F)c2)ncn(CC2(O)CCN(C(=O)[C@@H]3CCN(C(=O)c4sc(-c5ccc(C(F)(F)F)nc5)cc4F)C[C@H]3c3ccccc3)CC2)c1=O [Example 124, 5-amino-3-[[1-[(3R,4R)-1-[3-fluoro-5-[16-(trifluoromethyl)-3-pyridyl]thiophene-2-carbonyl]-3-phenyl-piperidine-4-carbonyl]-4-hydroxy-4-piperidyl]methyl]-6-[3-(trifluoromethyl)phenoxy]pyrimidin-4-one] | 12 nM | 31.5 | – |
| Nc1c(Oc2ccc(F)cc2)ncn(CC2(O)CCN(C(=O)[C@@H]3CCN(C(=O)c4sc(Br)c5c4OCCO5)C[C@H]3c3ccccc3)CC2)c1=O [Example 67] | 14 nM | – | 27.8 |
| Cc1ccc(-c2cc(F)c(C(=O)N3CC[C@@H](C(=O)N4CC[C@](O)(Cn5cnc(Oc6ccc(F)cc6)c(N)c5=O)C(F)(F)C4)[C@H](c4ccccc4)C3)s2)cn1 [Example 105, 5-amino-3-([(4S)-3,3-difluoro-1-((3R,4R)-1-[3-fluoro-5-(6-methylpyridin-3-yl)thiophene-2-carbonyl]-3-phenylpiperidine-4-carbonyl}-4-hydroxypiperidin-4-yl}methyl}-6-(4-fluorophenoxy)pyrimidin-4(3H)-one] | 2.6 nM | 5.08 | – |
| Nc1c(Oc2ccc(F)cc2)ncn(CC2(O)CCN(C(=O)[C@@H]3CCN(C(=O)c4cc(F)cc(Br)c4)C[C@H]3c3ccccc3)CC2)c1=O [Example 98] | 3.05 nM | 7 | – |
| Cc1cc(C(=O)N2CC[C@@H](C(=O)N3CC[C@](O)(Cn4cnc(Oc5ccc(F)cc5)c(N)c4=O)C(F)(F)C3)[C@H](c3ccccc3)C2)nn1-c1ccccc1 [Example 120, 5-amino-3-({(4S)-3,3-difluoro-4-hydroxy-1-[(3R,4R)-1-(5-methyl-1-phenyl-1H-pyrazole-3-carbonyl)-3phenylpiperidine-4-carbonyl]piperidin-4-yl)methyl)-6(4-fluorophenoxy)pyrimidin-4(3H)-one] | 45.4 nM | 41.3 | – |
| Nc1c(Oc2ccc(F)cc2)ncn(CC2(O)CCN(C(=O)[C@@H]3CCN(Cc4cccnc4)C[C@H]3c3ccccc3)CC2)c1=O [Example 62, 5-amino-6-(4-fluorophenoxy)-3-[(4-hydroxy-1-{(3R,4R)-3-phenyl-1-[(pyridin-3-yl)methyl]piperidine-4-carbonyl)piperidin-4-yl)methyl]pyrimidin-4(3H)-one] | 14 nM | 14 | – |
| Cc1ccc(C2(N3CC[C@@H](C(=O)N4CCC(O)(Cn5cnc(Oc6ccc(F)cc6)c(N)c5=O)CC4)[C@H](c4ccccc4)C3)COC2)cc1 [Example 155] | 97 nM | – | 588 |
| Cc1cncc(C(=O)N2CC[C@@H](C(=O)N3CCC(O)(Cn4cnc(Oc5ccc(F)cc5)c(N)c4=O)CC3)[C@H](c3ccccc3)C2)c1 [Example 92, 5-amino-6-(4-fluorophenoxy)-3-({4-hydroxy-1-[(3R,4R)-1-(5-methylpyridine-3-carbonyl)-3-phenylpiperidine-4-carbonyl]piperidin-4-yl}methyl)pyrimidin-4(3H)-one] | 4.9 nM | 45.7 | – |
| Cc1nc(-c2ccc(C(F)(F)F)nc2)sc1C(=O)N1CC[C@@H](C(=O)N2CCC(O)(Cn3cnc(Oc4cccc(C(F)(F)F)c4)c(N)c3=O)CC2)[C@H](c2ccccc2)C1 [Example 125, 5-amino-3-[[4-hydroxy-1-[(3R,4R)-1-[4-methyl-2-[6-(trifluoromethyl)-3-pyridyl]thiazole-5-carbonyl]-3-phenyl-piperidine-4-carbonyl]-4-piperidyl]methyl]-6-[3-(trifluoromethyl)phenoxy]pyrimidin-4-one] | 7.98 nM | 26.6 | – |
| Cc1nccc(CN2CC[C@@H](C(=O)N3CC[C@](O)(Cn4cnc(Oc5ccc(F)cc5)c(N)c4=O)C(F)(F)C3)[C@H](c3ccccc3)C2)n1 [Example 13, 5-amino-3-{[(4S)-3,3-difluoro-4-hydroxy-1-{(3R,4R)-1-[(2-methylpyrimidin-4-yl)methyl]-3-phenylpiperidine-4-carbonyl]piperidin-4-yl]methyl)-6-(4-fluorophenoxy)pyrimidin-4(31)-one] | 23.3 nM | 10.6 | – |
| Cc1ccc(-c2cc(F)c(C(=O)N3CC[C@@H](C(=O)N4CCC(O)(Cn5cnc(Oc6cccc(C(F)(F)F)c6)c(N)c5=O)CC4)[C@H](c4ccccc4)C3)s2)cn1 [Example 101, 5-amino-3-[[1-[(3R,4R)-1-[3-fluoro-5-(46-methyl-3-pyridyl)thiophene-2-carbonyl]-3-phenyl-piperidine-4-carbonyl]-4-hydroxy-4-piperidyl]methyl]-6-[3-(trifluoromethyl)phenoxy]pyrimidin-4-one] | 11 nM | 25.3 | – |
| Nc1c(Oc2ccc(F)cc2)ncn(CC2(O)CCN(C(=O)[C@@H]3CCN(C(=O)c4cccc5cnccc45)C[C@H]3c3ccccc3)CC2)c1=O [Example 102, 5-amino-6-(4-fluorophenoxy)-3-({4-hydroxy-1-[(3R,4R)-1-(isoquinoline-5-carbonyl)-3-phenylpiperidine-4-carbonyl]piperidin-4-yl}methyl)pyrimidin-4(3H)-one] | 4.1 nM | 9.31 | – |
| Nc1c(Oc2ccc(F)cc2)ncn(C[C@@]2(O)CCN(C(=O)[C@@H]3CCNC[C@H]3c3ccccc3)CC2(F)F)c1=O [Example 11, 5-amino-3-[[(4S)-3,3-difluoro-4-hydroxy-1-[(3R,4R)-3-phenylpiperidine-4-carbonyl]-4-piperidyl]methyl]-6-(4-fluorophenoxy)pyrimidin-4-one] | 99.4 nM | 390 | – |
| Cc1cccc(C(=O)N2CC[C@@H](C(=O)N3CCC(O)(Cn4cnc(Oc5ccc(F)cc5)c(N)c4=O)CC3)[C@H](c3ccccc3)C2)n1 [Example 93] | 51 nM | 86.4 | – |
| Nc1c(Oc2ccc(F)cc2)ncn(CC2(O)CCN(C(=O)[C@@H]3CCN(C(=O)Nc4nccs4)C[C@H]3c3ccccc3)CC2)c1=O [Example 86, (3R,4R)-4-[4-[[5-amino-4-(4-fluorophenoxy)-6-oxo-pyrimidin-1-yl]methyl]-4-hydroxy-piperidine-1-carbonyl]-3-phenyl-N-thiazol-2-yl-piperidine-1-carboxamide] | 58 nM | 838 | – |

The next lines start with results.

| Ki [1] | Structure (SMILES) | IC50 ([2]; Homo sapiens, Z-138) [nM] | IC50 [2] [nM] |
| --- | --- | --- | --- |
| 9.33 nM | Cc1nc(C2CCC2)sc1C(=O)N1CC[C@@H](C(=O)N2CCC(O)(Cn3cnc(Oc4ccc(F)cc4)c(N)c3=O)CC2)[C@H](c2ccccc2)C1 [Example 165, 5-amino-3-[[1-[(3R,4R)-1-(2-cyclobutyl-4-methyl-thiazole-5-carbonyl)-3-phenyl-piperidine-4-carbonyl]-4-hydroxy-4-piperidyl]methyl]-6-(4-fluorophenoxy)pyrimidin-4-one] | 2.74 | – |
| 3.7 nM | Nc1c(Oc2ccc(F)cc2)ncn(CC2(O)CCN(C(=O)[C@@H]3CCN(C(=O)c4cncc(F)c4)C[C@H]3c3ccccc3)CC2)c1=O [Example 134, 5-amino-6-(4-fluorophenoxy)-3-[[1-[(3R,4R)-1-(5-fluoropyridine-3-carbonyl)-3-phenyl-piperidine-4-carbonyl]-4-hydroxy-4-piperidyl]methyl]pyrimidin-4-one] | 17 | – |
| 4.44 nM | Cc1nc(-c2ccc(N(C)C)nc2)sc1C(=O)N1CC[C@@H](C(=O)N2CCC(O)(Cn3cnc(Oc4cccc(C(F)(F)F)c4)c(N)c3=O)CC2)[C@H](c2ccccc2)C1 [Example 126] | 29.5 | – |
| 22 nM | Cc1cnc(CN2CC[C@@H](C(=O)N3CC[C@](O)(Cn4cnc(Oc5cccc(C(F)(F)F)c5)c(N)c4=O)C(F)(F)C3)[C@H](c3ccccc3)C2)cn1 [Example 144, 5-amino-3-{[(4S)-3,3-difluoro-4-hydroxy-1-[(3R,4R)-1-((5-methylpyrazin-2-yl)methyl]-3-phenyl-piperidine-4-carbonyl]-4-piperidyl]methyl]-6-[3-(trifluoromethyl)phenoxy]pyrimidin-4-one] | 80.2 | – |
| 6.48 nM and 5.16 nM | Cc1ccc(-c2cc(CN3CC[C@@H](C(=O)N4CC[C@](O)(Cn5cnc(Oc6ccc(F)cc6)c(N)c5=O)C(F)(F)C4)[C@H](c4ccccc4)C3)ncn2)cn1 [Example 164, 5-amino-3-[[(4S)-3,3-difluoro-4-hydroxy-1-[(3R,4R)-1-[[6-(6-methyl-3-pyridyl)pyrimidin-4-yl}methyl]-3-phenyl-piperidine-4-carbonyl]-4-piperidyl]methyl]-6-(4-fluorophenoxy)pyrimidin-4-one] | 1.83 | – |
| 23.9 nM | Cc1cnc(CN2CC[C@@H](C(=O)N3CC[C@](O)(Cn4cnc(Oc5ccc(F)cc5)c(N)c4=O)C(F)(F)C3)[C@H](c3ccccc3)C2)cn1 [Example 201] | 7.5 | – |
| 35.5 nM | Cc1cnc(CN2CC[C@@H](C(=O)N3CC[C@](O)(Cn4cnc(Oc5ccc(Cl)cc5)c(N)c4=O)C(F)(F)C3)[C@H](c3ccccc3)C2)cn1 [Example 221, 5-amino-6-(4-chlorophenoxy)-3-[[(4S)-3,3-difluoro-4-hydroxy-1-[(3R,4R)-1-[(5-methylpyrazin-2-yl)methyl]-3-phenyl-piperidine-4-carbonyl]-4-piperidyl]methyl]pyrimidin-4-one] | 10.2 | – |
